# Where “and” joins values, the source holds several entries; their conditions need not be identical. Equal values may be shown once. Residues, ends and D or L forms follow the SMILES beside them.
# Key:
# Assay type in all cases: cell-based, rat
# [1] = test system: cAMP production (adenylate cyclase activity) in FRTL-5 cells; test: TSH bioassay, cAMP stimulation in FRTL-5 cells; conditions: at least 2 separate assays
# Description: (§1) FRTL-5 cells were maintained in Ham's F-12 medium supplemented with 5% calf serum and a 6 hormone preparation including 10 mU/ml bTSH as described by Ambesi-Impiombato et al., Proc. Natl. Acad. Sci. U.S.A., 77:3455 (1980), the disclosure of which is incorporated herein. For all assays herein described, the cells were plated in 24 well plates and grown for 3 days at 37° C. then maintained for 5-7 days in medium supplemented with 10 ug insulin alone prior to assay.
# (§2) The bioassay was a modification of those previously described by Bidey et al, J. Endocrinol., 101:269 (1984); and Kasagi et al., ACTA Endocrinol., 115:30 (1987). To duplicate culture wells were added varying concentrations of test materials (see below) in a final volume of 300 ul of NaCl free HBSS with 0.5 mM iso-butyl-methyl-xanthine (IBMX, Sigma, St. Louis). In stimulation assays, only synthetic α-subunit peptides were added to the incubation medium. […] Basal cAMP levels were determined in the presence of HBSS and IBMX alone. In inhibition assays percent inhibition was calculated as follows: [formula]
# The standard curve for TSH is shown in FIG. 3 and reports TSH deprived FRTL-5 cells incubated for 2 hrs. in buffer (NaCl-free HBSS, 200 mM sucrose, 0.5% BSA, 0.5 mM IBMX) with increasing concentrations of bTSH. cAMP released into the incubation media was measured by RIA. […]
# [2] = test system: TSH mediated cAMP generation in FRTL-5 cells; test: Inhibition of TSH mediated cAMP generation in FRTL-5 cells; conditions: 200 mU/L bTSH, 2 hrs 37° C.
# Description: as §1
# as §2, with “medium. For inhibition assays, the noted concentrations of synthetic α-subunit peptides were added immediately prior to the addition of 200 mU/L bTSH. The plates were incubated at 37° C. in 5% CO2 for 2 hrs then 100 ul of incubation medium was removed and diluted in 900 ul of 0.05M sodium acetate pH 6.2 and assayed for cAMP content by RIA in accordance with procedures described by Wray and Glinos, Am. J. Physiol., 234 (Cell Phisol. 3):C131(1978)); and Steiner et al., J. Biol. Chem., 247:1106 (1972).” for “medium.”
# FIG. 4 reports data obtained for TSH deprived FRTL-5 cells incubated with a fixed amount of bTSH (200 mU/l) by itself or with various concentrations of synthetic peptides. cAMP content of medium was measured after 2 hrs. incubation at 37° C. Percent inhibition of cAMP generation was calculated as noted above.
# [3] = test system: thyroid stimulating immunoglobulin (TSI) stimulated cAMP in FRTL-5 cells; test: TSI bioassay: inhibition of thyroid stimulating immunoglobulin activity (PEG-precipitated patient immunoglobulin) in FRTL-5 cells; conditions: for Percent inhibition of TSI activity, mean: mean of patient samples tested
# Excerpt: Ten patients (8 women and 2 men) with Graves' disease and high levels of TSI were identified after evaluation by FRTL-5 cell bioassay in the clinical chemistry laboratory. (FRTL-5 bioassay described below employing known TSH receptor recognition of various species hormones) Consecutive samples that had indices greater than 15 and sufficient serum remaining for further evaluation were chosen. Seven of the 10 had serum thyroxine values above the normal range and 9 of 10 had TSH levels below the euthyroid range by sensitive immunoradiometric assay [Boots-Celltech Sucrosep, Berkshire, UK, conducted as described in Klee and Hay, J. Clin. Endocrinol. Metab., 64:461 (1987)]. (FIG. 5). For comparison serum from 13 normal subjects was examined for TSI at the same serum dilution as the patient sera. (FIG. 5).
# FRTL-5 cells were maintained in Ham's F-12 medium supplemented with 5% calf serum and a 6-hormone preparation (6H) as described by Ambesi-Impiombato, supra. The cells were removed from flasks enzymatically, plated at 150,000 cells per well in 24 well plates, and grown in 6H medium for 4 days. The medium was then replaced with fresh medium supplemented with insulin only (1H) for 7 days prior to assay. The bioassay was a modification of that described by Kasagi et al., supra. Briefly, immunoglobulins were precipitated from 2 ml of serum with 6 ml 20% polyethylene glycol 6000 (Baker, Phillipsburg, N.J.), centrifuged at 2800×g for 20 minutes, and then reconstituted in 2.4 ml buffer (NaCl-free Hanks balanced salt solution, NaCl-free HBSS), containing 1 mM iso-butyl-methyl-xanthine (IBMX, Sigma, St. Louis) and 1.5% BSA. After washing the cells with HBSS, 150 ul of buffer was added to the wells plus varying concentrations of synthetic α-subunit peptides followed immediately by 150 ul of the crude immunoglobulin extract. The plates were incubated for 2 hours at 37° C., 5% CO2 after which 100 ul of medium was removed and diluted in 900 ul 50 mM sodium acetate buffer, pH 6.2. cAMP content was determined by radioimmunoassay using the procedures described in Wray and Glinos, supra and Steiner et al., supra. Basal cAMP levels were determined in the absence of immunoglobulin extract and synthetic peptides for each plate. Basal and maximum levels were determined in quadruplicate; peptide effects were measured in duplicate at each concentration.
# Percent increase in cAMP levels over basal was calculated as below: [formula]
# Percent inhibition of TSI activity by the synthetic α-subunit peptides was calculated as follows: [formula]
# cAMP levels in the presence of synthetic peptides were compared to maximum levels using student's T test for paired samples. Mean percent inhibition between different peptides were compared with student's T test for independent samples. Correlations were determined by Pearson's R.
compound,measurement,setting,value
"CSCC[C@H](NC(=O)[C@H](CS)NC(=O)[C@H](CCC(N)=O)NC(=O)[C@@H](N)CC(C)C)C(=O)NCC(=O)N[C@@H](CS)C(=O)N[C@@H](CS)C(=O)N[C@@H](Cc1ccccc1)C(=O)N[C@@H](CO)C(=O)N[C@@H](CCCNC(=N)N)C(=O)N[C@@H](C)C(=O)N[C@@H](Cc1ccc(O)cc1)C(=O)N1CCC[C@H]1C(=O)N[C@H](C(=O)N1CCC[C@H]1C(=O)N[C@@H](CC(C)C)C(=O)N[C@@H](CCCNC(=N)N)C(=O)N[C@@H](CO)C(=O)N[C@@H](CCCCN)C(=O)N[C@@H](CCCCN)C(=O)N[C@H](C(N)=O)[C@@H](C)O)[C@@H](C)O [α26-46, Leu--Gln--Cys--Met--Gly--Cys--Cys--Phe--Ser--Arg--Ala--Tyr--Pro--Thr--Pro--Leu--Arg--Ser--Lys--Lys--Thr--(NH2)] (H-LQCMGCCFSRAYPTPLRSKKT-NH2)","stimulation of cAMP levels over basal by peptide alone, in words",[1],no ability to stimulate cAMP production
same,percent inhibition of TSH mediated cAMP generation,[2]; peptide 33.3 ug/ml,65.0±2.6% and 64.97%
same,percent inhibition of TSH mediated cAMP generation,[2]; peptide 66.7 ug/ml,95.6±3.1% and 95.62%
same,percent inhibition of TSH mediated cAMP generation,[2]; peptide 133.3 ug/ml,106±0.8% and 106.70%
same,patient samples in which peptide showed an inhibitory effect / lowered cAMP levels,[3]; Graves' disease patient samples,10 of 10
same,Percent inhibition of TSI activity,"[3]; Pt. sample A, peptide 66.7 ug/ml",62.1%
same,Percent inhibition of TSI activity,"[3]; Pt. sample A, peptide 133 ug/ml",125.3±3% and 125.3%
same,Percent inhibition of TSI activity,"[3]; Pt. sample B, peptide 66.7 ug/ml",14.3%
same,Percent inhibition of TSI activity,"[3]; Pt. sample B, peptide 133 ug/ml",125.0%
same,Percent inhibition of TSI activity,"[3]; Pt. sample C, peptide 66.7 ug/ml",29.1%
same,Percent inhibition of TSI activity,"[3]; Pt. sample C, peptide 133 ug/ml",86.4%
same,Percent inhibition of TSI activity,"[3]; Pt. sample D, peptide 66.7 ug/ml",9.1%
same,Percent inhibition of TSI activity,"[3]; Pt. sample D, peptide 133 ug/ml",85.7%
same,Percent inhibition of TSI activity,"[3]; Pt. sample E, peptide 66.7 ug/ml",42.0%
same,Percent inhibition of TSI activity,"[3]; Pt. sample E, peptide 133 ug/ml",85.9%
same,Percent inhibition of TSI activity,"[3]; Pt. sample F, peptide 66.7 ug/ml",19.8%
same,Percent inhibition of TSI activity,"[3]; Pt. sample F, peptide 133 ug/ml",57.8%
same,Percent inhibition of TSI activity,"[3]; Pt. sample G, peptide 66.7 ug/ml",43.1%
same,Percent inhibition of TSI activity,"[3]; Pt. sample G, peptide 133 ug/ml",77.2%
same,Percent inhibition of TSI activity,"[3]; Pt. sample H, peptide 66.7 ug/ml",14.7%
same,Percent inhibition of TSI activity,"[3]; Pt. sample H, peptide 133 ug/ml",52.5%
same,Percent inhibition of TSI activity,"[3]; Pt. sample I, peptide 66.7 ug/ml",4.2%
same,Percent inhibition of TSI activity,"[3]; Pt. sample I, peptide 133 ug/ml",38±9.7% and 38.0%
same,Percent inhibition of TSI activity,"[3]; Pt. sample J, peptide 66.7 ug/ml",36.0%
same,Percent inhibition of TSI activity,"[3]; Pt. sample J, peptide 133 ug/ml",57.7%
same,"Percent inhibition of TSI activity, mean",[3]; peptide 66.7 ug/ml,27.5%
same,"Percent inhibition of TSI activity, mean",[3]; peptide 133 ug/ml,79.1±8.8% and 79.1%
same,patient Ig samples with statistically significant inhibition of cAMP,[3]; peptide 133 ug/ml,10
